{
  "source": "paper PMC9738107",
  "about": "“Targeting of the ELR+CXCL/CXCR1/2 Pathway Is a Relevant Strategy for the Treatment of Paediatric Medulloblastomas” (Cells, 2022)",
  "key": {"DR1 cells": {"system": "DR1 cells", "assay": "Cell death assay (PI staining), radiation-resistant cells", "assay_type": "cell-based, human", "settings": "DR1 compared to astrocytes", "procedure": "(§1) As with naïve cells, we determined the IC50 for DR1, DR2, […] and their SI compared to astrocytes.\n(§2) Figure 8 C29 is efficient on radioresistant MB cell lines. (A) Cell death after 48 h of treatment with control (DMSO, CT) or C29 1, 2.5, or 5 µM on radiation-resistant cells (RR) and normal cells (N), n = 3. Statistics were performed using the one-way method ANOVA. * p < 0.05, ** p < 0.01, *** p < 0.001. For this figure, DR1 = D1, DR2 = D2, HR1 = H1, HR2 = H2, and C8D1A = C8. (B) Proliferation of DR1/DR2 (A) and HR1/HR2 (B) radio-resistant cells after 1 µM C29 treatment or control (DMSO), n = 3. (C) Clonogenic assay on DR1, DR2 (n = 3) and HR1, HR2 (n = 3) cells after treatment with control (DMSO) or C29 (1 µM or 2.5 µM). (D) Cell migration through the Boyden chamber of DR1 and DR2 cells specifically attracted by 200 ng/mL CXCL8. Cells were treated with control (DMSO) or C29 (1 and 2.5 µM). Results are expressed as percentage of control (n = 3). Scale = 1000 μm. Statistics were performed using Student t-test for 2 comparisons only or ANOVA test for multiple comparisons. * p < 0.05, ** p < 0.01, *** p < 0.001. […]\n(§3) each month by using PlasmoTest Kit (#10L07‐MM, InvivoGen, Toulouse, France). Daoy and ONS‐76 belong to the Shh genetic subgroup, D341‐Med and HD‐MB03 to group 3.\n(§4) Mouse cerebellar astrocytes C8D1A (CRL ‐2541) were purchased from the American Tissue Culture Collection ATCC. These cells were cultured in DMEM (1X) + GlutaMAX (Invitrogen) medium supplemented with 10% FBS (D. Dutscher). Cells were cultured at 37°C in a 5% CO2 incubator. […]\n(§5) After 2 days, cells were treated with control (DMSO) or C29\n(§6) (1, 2∙5, 5μM) for 48 hours. After 48 hours, the medium was recovered, and the adherent cells were dissociated and added to the supernatant. Cell death was detected by PE chan‐ nel using FACS Cytoflex (Beckman) immediately after labelling the cells with 1ug/ml pro‐ pidium iodide (Miltenyi Biotec). Data were presented with the percentage of cell death after subtracting the percentage of untreated and unlabelled dead cells.\n(§7) Migration in Boyden chambers\n(§8) The cells were deprived of serum overnight. 50000 cells were plated in triplicate in serum‐free medium into the upper compartment of pre‐wetted inserts (24‐well plate fit, translucent PET membrane, 8∙0 μ m pore size, Falcon, Thermo Fisher). Medium containing 10% serum or CXCL8 (200ng/ml, Peprotech) was added to the lower compartment. After 24 hours, migrated cells were fixed with 3% paraformaldehyde and stained with Crystal […]\nViolet. […]\n(§9) 5000 cells were plated in 48 multi‐well plates coated with agarose 0∙8%. […]"}, "DR2 cells": {"system": "DR2 cells", "assay": "Cell death assay (PI staining), radiation-resistant cells", "assay_type": "cell-based, human", "settings": "DR2 compared to astrocytes", "procedure": "as §1, §2, §3, §4, §5, §6, §7, §8\nViolet. […]\nas §9"}, "HR1 cells": {"system": "HR1 cells", "assay": "Cell death assay (PI staining), radiation-resistant cells", "assay_type": "cell-based, human", "settings": "HR1 compared to astrocytes", "procedure": "as §1, §2, §3, §4, §5, §6, §7, §8\nViolet. […]\nas §9"}, "HR2 cells": {"system": "HR2 cells", "assay": "Cell death assay (PI staining), radiation-resistant cells", "assay_type": "cell-based, human", "settings": "HR2 compared to astrocytes", "procedure": "as §1, §2, §3, §4, §5, §6, §7, §8\nViolet. […]\nas §9"}, "Lipophilicity (log D)": {"assay": "Lipophilicity (log D)", "assay_type": "physicochemical", "settings": "source not stated"}},
  "data": [
    {"smiles": "O=C(Nc1cccc(Cl)c1)Nc1nc2ccc([N+](=O)[O-])cc2s1", "note": "[C29, 1-(3-chlorophenyl)-3-(6-nitrobenzo[d]thiazol-2-yl) urea]", "values": [
      {"measurement": "Selectivity index (SI)", "setting": "DR1 cells", "value": 3.9},
      {"measurement": "Selectivity index (SI)", "setting": "DR2 cells", "value": 3.9},
      {"measurement": "Selectivity index (SI)", "setting": "HR1 cells", "value": 7.7},
      {"measurement": "Selectivity index (SI)", "setting": "HR2 cells", "value": 2.8},
      {"measurement": "logD", "setting": "Lipophilicity (log D)", "value": "~3"}
    ]}
  ]
}
